Data from patent US9233167B2, “Oligomer-opioid agonist conjugates” (NEKTAR THERAPEUTICS, priority 2007, dated 2016).

How the values were obtained:
[1] = target: recombinant human kappa opioid receptor (Homo sapiens (Human), UniProt P41145); format: binding
Description: (§1) Using conventional receptor binding assay techniques, several molecules were assayed to determine binding activity at kappa, mu and delta opioid subtypes of opioid receptors.
(§2) Cells were plated in 24 well plates at a density of 0.2-0.3*10^6 cells/well and washed with assay buffer containing 50 mM Tris.HCl and 5 mM MgCl2 (pH 7.4). Competition binding assays were conducted in whole cells incubated with increasing concentrations of test compounds in the presence of appropriate concentration of radioligand. 0.5 nM ^3H Naloxone, 0.5 nM ^3H Diprenorphine and 0.5 nM ^3H DPDPE were used as the competing radioligands for mu, kappa and delta receptors respectively. Incubations were carried out for two hours at room temperature using triplicate wells at each concentration. At the end of the incubation, cells were washed with 50 mM Tris HCl (pH 8.0), solubilized with NaOH and bound radioactivity was measured using a scintillation counter.
(§3) Specific binding is determined by subtraction of the cpm bound in the presence of 50-100× excess of cold ligand. Binding data assays were analyzed using GraphPad Prism 4.0 and IC50 is generated by non-linear regression from dose-response curves.

[2] = target: recombinant human mu opioid receptor (Homo sapiens (Human), UniProt P35372); format: binding
Description: as §1, §2, §3

[3] = target: T1, recombinant human delta opioid receptor (Homo sapiens (Human), UniProt P41143); settings: Ki relative to nalbuphine
T1 sequence (P41143 whole entry, looked up): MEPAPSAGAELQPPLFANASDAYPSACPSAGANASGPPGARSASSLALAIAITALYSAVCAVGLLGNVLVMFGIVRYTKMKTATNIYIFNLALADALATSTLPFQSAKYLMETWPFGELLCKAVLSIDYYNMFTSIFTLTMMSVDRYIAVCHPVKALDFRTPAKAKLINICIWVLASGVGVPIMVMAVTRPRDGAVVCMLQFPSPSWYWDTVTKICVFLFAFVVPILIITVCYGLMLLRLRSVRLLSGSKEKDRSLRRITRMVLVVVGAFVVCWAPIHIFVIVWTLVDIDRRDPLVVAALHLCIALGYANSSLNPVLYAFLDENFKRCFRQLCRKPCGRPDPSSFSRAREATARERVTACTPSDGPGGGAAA
Description: as §1, §2, §3

[4] = target: T1, recombinant human delta opioid receptor; settings: GTP-γS binding, up to 10 μM
Description: The reaction is initiated by 0.3 nM [^35S]GTPγS for an additional 30 minutes incubation period.

[5] = rats, 25 mg/kg intravenously, one hour after injection

COCCOCCOCCO[C@H]1CC[C@@]2(O)[C@H]3Cc4ccc(O)c5c4[C@@]2(CCN3CC2CCC2)[C@H]1O5 [6-O-mPEG3-Nalbuphine, 6-O-mPEG3-nalbuphine]
Fold vs Nalbuphine at KAPPA [1]: 8.40 | Fold vs Nalbuphine At MU [2]: 1.92 | Fold vs Nalbuphine At DELTA [3]: 0.51 | effect at the delta opioid receptor [4]: no effect | brain:plasma ratio [5]: 0.23
